Like-named read-outs stand apart in the source and are kept apart here.
Biological target: unphosphorylated-BTK kinase domain (UP-BTK), GST-tagged human BTK (389-659aa) (Homo sapiens (Human), UniProt Q06187)
Test: BTK kinase Lanthascreen binding assay
Conditions: pIC50 = negative log of the IC50 in molar; for IC50: read-out: BTK_I_binding pIC50 (converted)
Method: BTK Kinase Lanthascreen Binding Assay:
A BTK kinase lanthascreen binding assay monitors compound binding to unphosphorylated-BTK kinase domain (UP-BTK), by competing with a fluorescent labeled tracer. […] Data were analyzed using Xlfit™ version 5.3 from ID Business Solutions (Guildford), Microsoft Excel add-in. pIC50 refers to the negative log of the IC50 in molar

[1] = 60 minutes incubation, 50 nM Tracer 236
[2] = unphosphorylated-BTK kinase domain, 50 nM Tracer 236, 60 minutes
[3] = Lanthascreen tracer competition, 60 minutes incubation

Chain of unphosphorylated-BTK kinase domain (UP-BTK), GST-tagged human BTK (389-659aa) (Q06187 389-659): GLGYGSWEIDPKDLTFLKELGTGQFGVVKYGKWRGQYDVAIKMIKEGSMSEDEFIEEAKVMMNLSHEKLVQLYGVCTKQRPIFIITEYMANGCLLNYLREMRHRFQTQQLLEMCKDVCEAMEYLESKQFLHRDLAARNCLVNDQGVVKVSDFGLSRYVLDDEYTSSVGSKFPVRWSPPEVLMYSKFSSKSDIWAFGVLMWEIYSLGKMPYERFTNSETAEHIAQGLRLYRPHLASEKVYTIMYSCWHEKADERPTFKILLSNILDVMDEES

Row | SMILES | BTK_I_binding pIC50 [1] | BTK_I_binding pIC50 [2] | also measured
1 | Cc1cc(Oc2cccc(COc3ccccc3C#N)c2)ccc1N1C(=O)Nc2c(C(=O)N[C@@H]3CCCN(C)C3)sc3nccc1c23 (mixture of isomers) [Example 24, (R)-5-(4-(3-((2-Cyanophenoxy)methyl)phenoxy)-2-methylphenyl)-N-(1-methylpiperidin-3-yl)-4-oxo-4,5-dihydro-3H-1-thia-3,5,8-triazaacenaphthylene-2-carboxamide] | 7.7 |  | 
2 | CCOC(C)(C)C=C(C#N)C(=O)N1CCC[C@@H](NC(=O)c2sc3nccc4c3c2NC(=O)N4c2ccc(Oc3ccccc3)cc2C)C1 (mixture of isomers) [Example 29, (R,EZ)—N-(1-(2-Cyano-4-ethoxy-4-methylpent-2-enoyl)piperidin-3-yl)-5-(2-methyl-4-phenoxyphenyl)-4-oxo-4,5-dihydro-3H-1-thia-3,5,8-triazaacenaphthylene-2-carboxamide] |  |  | IC50 [1]: 50.1 nM
3 | Cc1cc(Oc2ccccc2)ccc1N1C(=O)Nc2c(C(=O)NC3CC[C@@H](C)N(C)C3)sc3nccc1c23 (mixture of isomers) [Example 92, N-(1,6-Dimethylpiperidin-3-yl)-5-(2-methyl-4-phenoxyphenyl)-4-oxo-4,5-dihydro-3H-1-thia-3,5,8-triazaacenaphthylene-2-carboxamide] | 6.8 |  | 
4 | Cc1cc(Oc2ccccc2)ccc1N1C(=O)Nc2c(C(=O)NC3CC[C@H](C)NC3)sc3nccc1c23 (mixture of isomers) [Example 153, 5-(2-Methyl-4-phenoxyphenyl)-N-((6S)-6-methylpiperidin-3-yl)-4-oxo-4,5-dihydro-3H-1-thia-3,5,8-triazaacenaphthylene-2-carboxamide] | 6.8 |  | 
5 | Cc1cc(Oc2ccccc2)ccc1N1C(=O)Nc2c(C(=O)NC3CC[C@@H](C)NC3)sc3nccc1c23 (mixture of isomers) [Example 173, 5-(2-Methyl-4-phenoxyphenyl)-N-((6R)-6-methylpiperidin-3-yl)-4-oxo-4,5-dihydro-3H-1-thia-3,5,8-triazaacenaphthylene-2-carboxamide] |  |  | IC50 [1]: 158 nM
6 | CCO/C=C/C(=O)N1CCC[C@@H](NC(=O)c2sc3nccc4c3c2NC(=O)N4c2ccc(Oc3ccccc3)cc2C)C1 (mixture of isomers) [Example 221, (R,E)-N-(1-(3-Ethoxyacryloyl)piperidin-3-yl)-5-(2-methyl-4-phenoxyphenyl)-4-oxo-4,5-dihydro-3H-1-thia-3,5,8-triazaacenaphthylene-2-carboxamide] | 6.9 |  | 
7 | COC=C(C#N)C(=O)N1CCC[C@@H](NC(=O)c2sc3nccc4c3c2NC(=O)N4c2ccc(Oc3ccccc3)cc2C)C1 (mixture of isomers) [Example 231, (R,EZ)—N-(1-(2-Cyano-3-methoxyacryloyl)piperidin-3-yl)-5-(2-methyl-4-phenoxyphenyl)-4-oxo-4,5-dihydro-3H-1-thia-3,5,8-triazaacenaphthylene-2-carboxamide] | 6.8 |  | 
8 | COCCNC(C)(C)C=C(C#N)C(=O)N1CCC[C@@H](NC(=O)c2sc3nccc4c3c2NC(=O)N4c2ccc(Oc3ccccc3)cc2C)C1 (mixture of isomers) [Example 234, (R,EZ)—N-(1-(2-Cyano-4-((2-methoxyethyl)amino)-4-methylpent-2-enoyl)piperidin-3-yl)-5-(2-methyl-4-phenoxyphenyl)-4-oxo-4,5-dihydro-3H-1-thia-3,5,8-triazaacenaphthylene-2-carboxamide] | 7.2 |  | 
9 | Cc1cc(Oc2ccccc2)ccc1N1C(=O)Nc2c(C(=O)N[C@@H]3CCCN(C(=O)C(=CC4CC4)C(F)(F)F)C3)sc3nccc1c23 (mixture of isomers) [Example 313, (R,EZ)—N-(1-(3-Cyclopropyl-2-(trifluoromethyl)acryloyl)piperidin-3-yl)-5-(2-methyl-4-phenoxyphenyl)-4-oxo-4,5-dihydro-3H-1-thia-3,5,8-triazaacenaphthylene-2-carboxamide] |  | 5.9 | 
10 | Cc1cc(Oc2ccccc2)ccc1N1C(=O)Nc2c(C(=O)N[C@@H]3CCCN(C(=O)C(Cl)=CC4CC4)C3)sc3nccc1c23 (mixture of isomers) [Example 402, (R,EZ)—N-(1-(2-Chloro-3-cyclopropylacryloyl)piperidin-3-yl)-5-(2-methyl-4-phenoxyphenyl)-4-oxo-4,5-dihydro-3H-1-thia-3,5,8-triazaacenaphthylene-2-carboxamide] |  | 6.5 | 
11 | C=CC(=O)N1CCC[C@@H](NC(=O)c2sc3nccc4c3c2NC(=O)N4c2cnc(CC(C)C)cc2C)C1 (mixture of isomers) [Example 671, (R)—N-(1-Acryloylpiperidin-3-yl)-5-(6-isobutyl-4-methylpyridin-3-yl)-4-oxo-4,5-dihydro-3H-1-thia-3,5,8-triazaacenaphthylene-2-carboxamide] |  |  | IC50 [3]: 25.1 nM
12 | Cc1cc(Oc2ccccc2)ncc1N1C(=O)Nc2c(C(=O)N[C@@H]3COC[C@@H]3N)sc3nccc1c23 (racemic) [Example 707] |  |  | IC50 [3]: 200 nM
13 | Cc1ccc(Oc2ccccc2)cc1N1C(=O)Nc2c(C(=O)N[C@@H]3CCCN(C(=O)/C(C#N)=C/C4CC4)C3)sc3nccc1c23 (racemic) [Example 875, (E)-N-(1-(2-Cyano-3-cyclopropylacryloyl)piperidin-3-yl)-5-(2-methyl-5-phenoxyphenyl)-4-oxo-4,5-dihydro-3H-1-thia-3,5,8-triazaacenaphthylene-2-carboxamide] |  |  | BTK_I_binding pIC50 [3]: 7.2
14 | O=C(N[C@@H]1CCNC[C@H]1O)c1sc2nccc3c2c1NC(=O)N3c1ccc(Oc2ccccc2)cc1 (relative stereo) [Example 615, N-(trans-3-Hydroxypiperidin-4-yl)-4-oxo-5-(4-phenoxyphenyl)-4,5-dihydro-3H-1-thia-3,5,8-triazaacenaphthylene-2-carboxamide] |  |  | IC50 [3]: 794 nM
15 | CC(C)(C)OC(=O)N1CC[C@@H](NC(=O)c2sc3nccc4c3c2NC(=O)N4c2ccc(Oc3ccccc3)cc2)[C@H](O)C1 (relative stereo) [Example 617, trans-tert-Butyl 3-hydroxy-4-(4-oxo-5-(4-phenoxyphenyl)-4,5-dihydro-3H-1-thia-3,5,8-triazaacenaphthylene-2-carboxamido)piperidine-1-carboxylate] |  |  | IC50 [3]: 1000 nM
16 | O=C(N[C@@H]1CCNC[C@@H]1O)c1sc2nccc3c2c1NC(=O)N3c1ccc(Oc2ccccc2)cc1 (relative stereo) [Example 659, N-(cis-3-Hydroxypiperidin-4-yl)-4-oxo-5-(4-phenoxyphenyl)-4,5-dihydro-3H-1-thia-3,5,8-triazaacenaphthylene-2-carboxamide] |  |  | IC50 [3]: 251 nM
17 | C=CC(=O)N1C[C@H](O)C[C@@H](NC(=O)c2sc3nccc4c3c2NC(=O)N4c2ccc(Oc3ccccc3)cc2C)C1 (single isomer, unassigned) [Example 2, N-((3R,5S)-1-Acryloyl-5-hydroxypiperidin-3-yl)-5-(*S)-(2-methyl-4-phenoxyphenyl)-4-oxo-4,5-dihydro-3H-1-thia-3,5,8-triazaacenaphthylene-2-carboxamide] | 8.2 |  | 
18 | C=CC(=O)N1CC[C@@H](NC(=O)c2sc3nccc4c3c2NC(=O)N4c2ccc(Oc3ccccc3)cc2C)C1 (single isomer, unassigned) [Example 5, (R)—N-(1-Acryloylpyrrolidin-3-yl)-5-(*S)-(2-methyl-4-phenoxyphenyl)-4-oxo-4,5-dihydro-3H-1-thia-3,5,8-triazaacenaphthylene-2-carboxamide] | 8.1 |  | 

Second part, led by results:

Row | BTK_I_binding pIC50 [1] | BTK_I_binding pIC50 [2] | SMILES | also measured
19 |  | 7.0 | CO[C@@H]1CNC[C@H](NC(=O)c2sc3nccc4c3c2NC(=O)N4c2ccc(Oc3ccccc3)cc2C)C1 (relative stereo) [Example 467, N-((3R,5S)-5-Methoxypiperidin-3-yl)-5-(*S)-(2-methyl-4-phenoxyphenyl)-4-oxo-4,5-dihydro-3H-1-thia-3,5,8-triazaacenaphthylene-2-carboxamide] | 
20 |  | 5.9 | CO[C@@H]1CNC[C@H](NC(=O)c2sc3nccc4c3c2NC(=O)N4c2ccc(Oc3ccccc3)cc2C)C1 (relative stereo) [Example 468, N-((3R,5S)-5-Methoxypiperidin-3-yl)-5-(*R)-(2-methyl-4-phenoxyphenyl)-4-oxo-4,5-dihydro-3H-1-thia-3,5,8-triazaacenaphthylene-2-carboxamide] | 
21 |  | 7.6 | C=CC(=O)N1C[C@@H](O)[C@@H](NC(=O)c2sc3nccc4c3c2NC(=O)N4c2ccc(Oc3ccccc3)cc2C)C1 (relative stereo) [Example 489, N-((3S,4R)-1-Acryloyl-4-hydroxypyrrolidin-3-yl)-5-(*S)-(2-methyl-4-phenoxyphenyl)-4-oxo-4,5-dihydro-3H-1-thia-3,5,8-triazaacenaphthylene-2-carboxamide] | 
22 |  | 7.9 | C=CC(=O)N1C[C@H](F)C[C@@H](NC(=O)c2sc3nccc4c3c2NC(=O)N4c2ccc(Oc3ccccc3)cc2C)C1 (relative stereo) [Example 499, N-((3R,5R)-1-Acryloyl-5-fluoropiperidin-3-yl)-5-(*S)-(2-methyl-4-phenoxyphenyl)-4-oxo-4,5-dihydro-3H-1-thia-3,5,8-triazaacenaphthylene-2-carboxamide] | 
23 |  | 7.5 | C=CC(=O)N1C[C@H](NC(=O)c2sc3nccc4c3c2NC(=O)N4c2ccc(Oc3ccccc3)cc2C)[C@@H](O)C1 (relative stereo) [Example 523, N-((3S,4S)-1-Acryloyl-4-hydroxypyrrolidin-3-yl)-5-(*S)-(2-methyl-4-phenoxyphenyl)-4-oxo-4,5-dihydro-3H-1-thia-3,5,8-triazaacenaphthylene-2-carboxamide] | 

Source: patent US10800792B2, “Inhibitors of Bruton's tyrosine kinase and method of their use” (JANSSEN PHARMACEUTICA NV, priority 2015, dated 2020)
